Test results taken from patent publication US7138361B2, “Herbicidal heterocycles” (E. I. du Pont de Nemours and Company, priority 2000, dated 2006).

Key:
Format in all cases: in vivo
Sunflower [1] = assay: Test C preemergence; settings: Rate 500 g/ha, visual evaluation after 12 to 14 days
[2] = tested on: pigweed (Amaranthus retroflexus); assay: Test B postemergence; settings: 13 to 15 days
In short: (§1)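 Pre: seeded pots sprayed, chemical in non-phytotoxic solvent/surfactant mix. Post: plants 2–18 cm, 1–4 leaf, same formulation. Greenhouse 13–15 d; visual % control vs untreated, 0–100 scale.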

[3] = tested on: crabgrass (Digitaria sanguinalis); assay: Test B postemergence; settings: 13 to 15 days
In short: as §1

[4] = tested on: barnyardgrass (Echinochloa crus-galli); assay: Test B postemergence; settings: 13 to 15 days
In short: as §1

[5] = tested on: Surinam grass (Brachiaria decumbens); assay: Test B postemergence; settings: 13 to 15 days
In short: as §1

[6] = tested on: cocklebur (Xanthium strumarium); assay: Test B postemergence; settings: 13 to 15 days
In short: as §1

corn (Zea mays) [7] = assay: Test B postemergence; settings: 13 to 15 days
In short: as §1

wild oat (Avena fatua) = assay: Test B postemergence; settings: 13 to 15 days
In short: as §1

[8] = tested on: wheat (Triticum aestivum); assay: Test B postemergence; settings: 13 to 15 days
In short: as §1

[9] = tested on: morning glory (Ipomoea hederacea); assay: Test B postemergence; settings: 13 to 15 days
In short: as §1

[10] = tested on: giant foxtail (Setaria faberii); assay: Test B postemergence; settings: 13 to 15 days
In short: as §1

[11] = tested on: velvetleaf (Abutilon theophrasti); assay: Test B postemergence; settings: 13 to 15 days
In short: as §1

[12] = tested on: lambsquarters (Chenopodium album); assay: Test C preemergence; settings: for Plant response rating, Lambsquarters: scale 0 to 100, 0 no effect, 100 complete control; for Plant response rating (0 to 100), Lambsquarters: Rate 500 g/ha, visual evaluation after 12 to 14 days
In short: (§2)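 Compounds in non-phytotoxic solvent with surfactant applied preemergence to planted seeds and postemergence to plants at 1- to 4-leaf stage (2–18 cm). Kept in greenhouse 12–14 days, then visually rated against controls on a 0 (no effect) to 100 (complete control) scale.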

Nightshade = assay: Test C preemergence; settings: scale 0 to 100, 0 no effect, 100 complete control
[13] = tested on: morningglory (Ipomoea hederacea); assay: Test C preemergence; settings: for Plant response rating, Morningglory: scale 0 to 100, 0 no effect, 100 complete control; for Plant response rating (0 to 100), Morningglory: Rate 500 g/ha, visual evaluation after 12 to 14 days
In short: as §2

corn (Zea mays) [14] = assay: Test C preemergence; settings: for Plant response rating, Corn: scale 0 to 100, 0 no effect, 100 complete control; for Plant response rating (0 to 100), Corn: preemergence, visual evaluation after 12 to 14 days
In short: as §2

Sunflower [15] = assay: Test C preemergence; settings: Rate 125 g/ha; scale 0 to 100, 0 no effect, 100 complete control
[16] = tested on: common ragweed (Ambrosia elatior); assay: Test C preemergence; settings: for Plant response rating, Ragweed, Common: scale 0 to 100, 0 no effect, 100 complete control; for Plant response rating (0 to 100), Ragweed, Common: Rate 500 g/ha, visual evaluation after 12 to 14 days
In short: as §2

[17] = tested on: goosegrass (Eleusine indica); assay: Test C preemergence; settings: for Plant response rating, Goosegrass: scale 0 to 100, 0 no effect, 100 complete control; for Plant response rating (0 to 100), Goosegrass: preemergence, visual evaluation after 12 to 14 days
In short: as §2

[18] = tested on: johnsongrass (Sorghum halepense); assay: Test C preemergence; settings: for Plant response rating, Johnsongrass: scale 0 to 100, 0 no effect, 100 complete control; for Plant response rating (0 to 100), Johnsongrass: preemergence, visual evaluation after 12 to 14 days
In short: as §2

[19] = tested on: yellow nutsedge (Cyperus esculentus); assay: Test C preemergence; settings: for Plant response rating, Nutsedge: scale 0 to 100, 0 no effect, 100 complete control; for Plant response rating (0 to 100), Nutsedge: Rate 500 g/ha, visual evaluation after 12 to 14 days
In short: as §2

[20] = tested on: velvetleaf (Abutilon theophrasti); assay: Test C preemergence; settings: for Plant response rating, Velvetleaf: scale 0 to 100, 0 no effect, 100 complete control; for Plant response rating (0 to 100), Velvetleaf: Rate 500 g/ha, visual evaluation after 12 to 14 days
In short: as §2

[21] = Rate 125 g/ha, scale 0 (no effect) to 100 (complete control)
[22] = Rate 500 g/ha, scale 0 to 100, 0 is no effect, 100 is complete control

## Cc1ccc(N2CCC(n3ccc(C(C)(C)C)n3)C2=O)cc1OC(F)F (stereo not drawn) [Compound 79]
Sunflower [1]
  Plant response rating (0 to 100), Sunflower: 60
[2]; [21]
  Plant response rating, Pigweed: 70
[2]; [22]
  Plant response rating, Pigweed: 70
[3]; [21]
  Plant response rating, Crabgrass: 0
[3]; [22]
  Plant response rating, Crabgrass: 0
[4]; [21]
  Plant response rating, Barnyardgrass: 0
[4]; [22]
  Plant response rating, Barnyardgrass: 0
[5]; [21]
  Plant response rating, Surinam grass: 0
[5]; [22]
  Plant response rating, Surinam grass: 0
[6]; [21]
  Plant response rating, Cocklebur: 30
[6]; [22]
  Plant response rating, Cocklebur: 30
Corn (Zea mays) [7]; [21]
  Plant response rating, Corn: 0
Corn (Zea mays) [7]; [22]
  Plant response rating, Corn: 0
Wild oat (Avena fatua); [21]
  Plant response rating, Wild Oat: 0
Wild oat (Avena fatua); [22]
  Plant response rating, Wild Oat: 0
[8]; [21]
  Plant response rating, Wheat: 0
[8]; [22]
  Plant response rating, Wheat: 0
[9]; [21]
  Plant response rating, Morningglory: 30
[9]; [22]
  Plant response rating, Morningglory: 40
[10]; [21]
  Plant response rating, Foxtail, Giant: 0
[10]; [22]
  Plant response rating, Foxtail, Giant: 0
[11]; [21]
  Plant response rating, Velvetleaf: 0
[11]; [22]
  Plant response rating, Velvetleaf: 0
[12]; Rate 62 g/ha
  Plant response rating, Lambsquarters: 100
[12]; Rate 125 g/ha
  Plant response rating, Lambsquarters: 100
[12]; preemergence
  Plant response rating (0 to 100), Lambsquarters: 100
[12]; preemergence, Rate 250 g/ha
  Plant response rating, Lambsquarters: 100
Nightshade; Rate 62 g/ha
  Plant response rating, Nightshade: 20
Nightshade; Rate 125 g/ha
  Plant response rating, Nightshade: 50
Nightshade; Rate 250 g/ha
  Plant response rating, Nightshade: 50
[13]; Rate 62 g/ha
  Plant response rating, Morningglory: 0
[13]; Rate 125 g/ha
  Plant response rating, Morningglory: 0
[13]; preemergence
  Plant response rating (0 to 100), Morningglory: 70
[13]; preemergence, Rate 250 g/ha
  Plant response rating, Morningglory: 30
Corn (Zea mays) [14]; Rate 62 g/ha
  Plant response rating, Corn: 0
Corn (Zea mays) [14]; Rate 125 g/ha
  Plant response rating, Corn: 0
Corn (Zea mays) [14]; Rate 250 g/ha
  Plant response rating (0 to 100), Corn: 0
Corn (Zea mays) [14]; Rate 500 g/ha
  Plant response rating (0 to 100), Corn: 0
Sunflower [15]
  Plant response rating, Sunflower: 0
[16]; Rate 125 g/ha
  Plant response rating, Ragweed, Common: 100
[16]; preemergence
  Plant response rating (0 to 100), Ragweed, Common: 100
[16]; preemergence, Rate 250 g/ha
  Plant response rating, Ragweed, Common: 100
[17]; Rate 62 g/ha
  Plant response rating, Goosegrass: 80
[17]; Rate 125 g/ha
  Plant response rating, Goosegrass: 90
[17]; Rate 250 g/ha
  Plant response rating (0 to 100), Goosegrass: 100
[17]; Rate 500 g/ha
  Plant response rating (0 to 100), Goosegrass: 100
[18]; Rate 62 g/ha
  Plant response rating, Johnsongrass: 0
[18]; Rate 125 g/ha
  Plant response rating, Johnsongrass: 0
[18]; Rate 250 g/ha
  Plant response rating (0 to 100), Johnsongrass: 0
[18]; Rate 500 g/ha
  Plant response rating (0 to 100), Johnsongrass: 0
[19]; Rate 62 g/ha
  Plant response rating, Nutsedge: 0
[19]; Rate 125 g/ha
  Plant response rating, Nutsedge: 0
[19]; preemergence
  Plant response rating (0 to 100), Nutsedge: 0
[19]; preemergence, Rate 250 g/ha
  Plant response rating, Nutsedge: 0
[20]; Rate 125 g/ha
  Plant response rating, Velvetleaf: 0
[20]; preemergence
  Plant response rating (0 to 100), Velvetleaf: 50
[20]; preemergence, Rate 250 g/ha
  Plant response rating, Velvetleaf: 20

## CCC(C)c1ccn(C2CCN(c3ccc(C)c(OC)c3)C2=O)n1 (stereo not drawn) [Compound 80]
Sunflower [1]
  Plant response rating (0 to 100), Sunflower: 60
[2]; [21]
  Plant response rating, Pigweed: 70
[2]; [22]
  Plant response rating, Pigweed: 80
[3]; [21]
  Plant response rating, Crabgrass: 0
[3]; [22]
  Plant response rating, Crabgrass: 40
[4]; [21]
  Plant response rating, Barnyardgrass: 0
[4]; [22]
  Plant response rating, Barnyardgrass: 10
[5]; [21]
  Plant response rating, Surinam grass: 0
[5]; [22]
  Plant response rating, Surinam grass: 0
[6]; [21]
  Plant response rating, Cocklebur: 70
[6]; [22]
  Plant response rating, Cocklebur: 80
Corn (Zea mays) [7]; [21]
  Plant response rating, Corn: 0
Corn (Zea mays) [7]; [22]
  Plant response rating, Corn: 0
Wild oat (Avena fatua); [21]
  Plant response rating, Wild Oat: 0
Wild oat (Avena fatua); [22]
  Plant response rating, Wild Oat: 0
[8]; [21]
  Plant response rating, Wheat: 0
[8]; [22]
  Plant response rating, Wheat: 0
[9]; [21]
  Plant response rating, Morningglory: 40
[9]; [22]
  Plant response rating, Morningglory: 90
[10]; [21]
  Plant response rating, Foxtail, Giant: 0
[10]; [22]
  Plant response rating, Foxtail, Giant: 0
[11]; [21]
  Plant response rating, Velvetleaf: 40
[11]; [22]
  Plant response rating, Velvetleaf: 70
[12]; Rate 62 g/ha
  Plant response rating, Lambsquarters: 100
[12]; Rate 125 g/ha
  Plant response rating, Lambsquarters: 100
[12]; preemergence
  Plant response rating (0 to 100), Lambsquarters: 100
[12]; preemergence, Rate 250 g/ha
  Plant response rating, Lambsquarters: 100
Nightshade; Rate 62 g/ha
  Plant response rating, Nightshade: 90
Nightshade; Rate 125 g/ha
  Plant response rating, Nightshade: 100
Nightshade; Rate 250 g/ha
  Plant response rating, Nightshade: 100
[13]; Rate 62 g/ha
  Plant response rating, Morningglory: 0
[13]; Rate 125 g/ha
  Plant response rating, Morningglory: 20
[13]; preemergence
  Plant response rating (0 to 100), Morningglory: 100
[13]; preemergence, Rate 250 g/ha
  Plant response rating, Morningglory: 100
Corn (Zea mays) [14]; Rate 62 g/ha
  Plant response rating, Corn: 0
Corn (Zea mays) [14]; Rate 125 g/ha
  Plant response rating, Corn: 30
Corn (Zea mays) [14]; Rate 250 g/ha
  Plant response rating (0 to 100), Corn: 0
Corn (Zea mays) [14]; Rate 500 g/ha
  Plant response rating (0 to 100), Corn: 60
Sunflower [15]
  Plant response rating, Sunflower: 30
[16]; Rate 125 g/ha
  Plant response rating, Ragweed, Common: 100
[16]; preemergence
  Plant response rating (0 to 100), Ragweed, Common: 100
[16]; preemergence, Rate 250 g/ha
  Plant response rating, Ragweed, Common: 100
[17]; Rate 62 g/ha
  Plant response rating, Goosegrass: 100
[17]; Rate 125 g/ha
  Plant response rating, Goosegrass: 100
[17]; Rate 250 g/ha
  Plant response rating (0 to 100), Goosegrass: 100
[17]; Rate 500 g/ha
  Plant response rating (0 to 100), Goosegrass: 100
[18]; Rate 62 g/ha
  Plant response rating, Johnsongrass: 20
[18]; Rate 125 g/ha
  Plant response rating, Johnsongrass: 60
[18]; Rate 250 g/ha
  Plant response rating (0 to 100), Johnsongrass: 60
[18]; Rate 500 g/ha
  Plant response rating (0 to 100), Johnsongrass: 70
[19]; Rate 62 g/ha
  Plant response rating, Nutsedge: 0
[19]; Rate 125 g/ha
  Plant response rating, Nutsedge: 20
[19]; preemergence
  Plant response rating (0 to 100), Nutsedge: 0
[19]; preemergence, Rate 250 g/ha
  Plant response rating, Nutsedge: 0
[20]; Rate 125 g/ha
  Plant response rating, Velvetleaf: 40
[20]; preemergence
  Plant response rating (0 to 100), Velvetleaf: 100
[20]; preemergence, Rate 250 g/ha
  Plant response rating, Velvetleaf: 70
